The numbers were not newly measured in article PMC7522491 (Molecular Metabolism, 2020), which cites them from elsewhere.

Where no end group is shown, it is not given here.

The conditions of series [1]: infusion into the portal circulation, dogs.
The conditions of series [2]: administration in mice.

As for `CCCCCCCC/C=C\CCCCCCCC(=O)O` [oleate], the hepatic insulin clearance entry in series [1] is “suppressed hepatic insulin clearance”.

As to “glucagon-like peptide-1 (HAEGTFTSDVSSYLEGQAAKEFIAWLVKGR; ends and bridges not checked; UniProt P55095 98-127, looked up) [GLP-1, incretin hormone administered in mice (literature)]”, the “blood insulin levels / insulin clearance” value in series [2] is “increased blood insulin levels in part by reducing insulin clearance”.
